# Measured values taken from patent US12077503B2, “Substituted cyclic amides and their use as herbicides” (FMC CORPORATION, priority 2015, dated 2024).
# How the values were obtained:
# Format in all cases: in vivo
# Kochia (Kochia scoparia) [1] = experiment: Test A preemergence; settings: for Kochia plant response rating (0 to 100 scale, 0 is no effect, 100 is complete control): visual injury approx. 10 d
# Outline: (§1)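 Visual injury, scored on a 0–100 scale relative to untreated controls, was recorded about 10 d after application. Treatments were a preemergence soil spray over planted seeds or a postemergence spray on plants at the one- to two-leaf stage, 2 to 10 cm tall, all in loam soil–sand blend in the greenhouse.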
# [2] = test system: barnyardgrass (Echinochloa crus-galli); experiment: Test A preemergence; settings: for Barnyardgrass plant response rating (0 to 100 scale, 0 is no effect, 100 is complete control): visual injury approx. 10 d
# Outline: as §1
# [3] = test system: giant foxtail (Setaria faberii); experiment: Test A preemergence; settings: for Foxtail, Giant plant response rating (0 to 100 scale, 0 is no effect, 100 is complete control): visual injury approx. 10 d
# Outline: as §1
# [4] = test system: pigweed (Amaranthus retroflexus); experiment: Test A preemergence
# [5] = test system: ragweed (common ragweed, Ambrosia elatior); experiment: Test A preemergence; settings: for Ragweed plant response rating (0 to 100 scale, 0 is no effect, 100 is complete control): visual injury approx. 10 d
# Outline: as §1
# [6] = test system: ryegrass, Italian (Italian ryegrass, Lolium multiflorum); experiment: Test A preemergence; settings: for Ryegrass, Italian plant response rating (0 to 100 scale, 0 is no effect, 100 is complete control): visual injury approx. 10 d
# Outline: as §1
# [7] = test system: Galium (catchweed bedstraw, Galium aparine); experiment: Test A postemergence
# Outline: as §1
# Kochia (Kochia scoparia) [8] = experiment: Test A postemergence
# Outline: as §1
# [9] = test system: barnyardgrass (Echinochloa crus-galli); experiment: Test A postemergence
# Outline: as §1
# [10] = test system: blackgrass (Alopecurus myosuroides); experiment: Test A postemergence
# Outline: as §1
# corn (Zea mays) = experiment: Test A postemergence
# Outline: as §1
# [11] = test system: giant foxtail (Setaria faberii); experiment: Test A postemergence
# Outline: as §1
# [12] = test system: pigweed (Amaranthus retroflexus); experiment: Test A postemergence
# Outline: as §1
# [13] = test system: ragweed (common ragweed, Ambrosia elatior); experiment: Test A postemergence
# Outline: as §1
# [14] = test system: ryegrass, Italian (Italian ryegrass, Lolium multiflorum); experiment: Test A postemergence
# Outline: as §1
# [15] = test system: wheat (Triticum aestivum); experiment: Test A postemergence
# Outline: as §1
# [16] = test system: barnyardgrass (Echinochloa crus-galli); experiment: Test B flooded paddy test; settings: Flood, 250 g ai/ha; 0 to 100 scale where 0 is no effect and 100 is complete control; 13 to 15 d
# Outline: (§2)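 Percent control, visually estimated after 13–15 d in the greenhouse on a 0–100 basis, compares treated pots with untreated ones; compound was put into paddy water 3 cm above the soil when plants had two leaves.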
# [17] = test system: ducksalad (Heteranthera limosa); experiment: Test B flooded paddy test; settings: Flood, 250 g ai/ha; 0 to 100 scale where 0 is no effect and 100 is complete control; 13 to 15 d
# Outline: as §2
# rice (Oryra sativa) = experiment: Test B flooded paddy test; settings: Flood, 250 g ai/ha; 0 to 100 scale where 0 is no effect and 100 is complete control; 13 to 15 d
# Outline: as §2
# [18] = test system: sedge, umbrella (small-flower umbrella sedge, Cyperus difformis); experiment: Test B flooded paddy test; settings: Flood, 250 g ai/ha; 0 to 100 scale where 0 is no effect and 100 is complete control; 13 to 15 d
# Outline: as §2
# [19] = 125 g ai/ha, Preemergence, visual injury after approximately 10 d, 0 to 100 scale where 0 is no effect and 100 is complete control
# [20] = 125 g ai/ha, postemergence, visual rating after approx. 10 d, 0 to 100 scale (0 no effect, 100 complete control)
# [21] = Postemergence, 500 g ai/ha, 0 to 100 scale where 0 is no effect and 100 is complete control
# [22] = 500 g ai/ha, preemergence, 0 to 100 scale, 0 = no effect, 100 = complete control
# [23] = 125 g ai/ha, postemergence, visual injury rating on 0 to 100 scale (0 no effect, 100 complete control), approx. 10 d
structure (smiles),measurement,setting,value
O=C1NCC(c2cc(C(F)(F)F)cc(C(F)(F)F)c2)C1C(=O)Nc1ccccc1F (centres unmarked) [Compound 587],"Plant response rating, Kochia",Kochia (Kochia scoparia) [1]; [19],0
same,"Kochia plant response rating (0 to 100 scale, 0 is no effect, 100 is complete control)","Kochia (Kochia scoparia) [1]; Preemergence, 500 g ai/ha",0
same,"Plant response rating, Barnyardgrass",[2]; [19],90
same,"Barnyardgrass plant response rating (0 to 100 scale, 0 is no effect, 100 is complete control)","[2]; Preemergence, 500 g ai/ha",90
same,"Plant response rating, Foxtail, Giant",[3]; [19],90
same,"Foxtail, Giant plant response rating (0 to 100 scale, 0 is no effect, 100 is complete control)","[3]; Preemergence, 500 g ai/ha",90
same,"Plant response rating, Pigweed",[4]; [19],0
same,"Plant response rating, Ragweed",[5]; [19],0
same,"Ragweed plant response rating (0 to 100 scale, 0 is no effect, 100 is complete control)","[5]; Preemergence, 500 g ai/ha",0
same,"Plant response rating, Ryegrass, Italian",[6]; [19],20
same,"Ryegrass, Italian plant response rating (0 to 100 scale, 0 is no effect, 100 is complete control)","[6]; Preemergence, 500 g ai/ha",60
same,"Plant response rating, Galium",[7]; [20],0
same,"Plant response rating, Galium",[7]; [21],0
same,"Plant response rating, Kochia",Kochia (Kochia scoparia) [8]; [20],0
same,"Plant response rating, Kochia",Kochia (Kochia scoparia) [8]; [21],20
same,"Plant response rating, Barnyardgrass",[9]; [20],80
same,"Plant response rating, Barnyardgrass",[9]; [21],90
same,"Plant response rating, Blackgrass",[10]; [20],20
same,"Plant response rating, Blackgrass",[10]; [21],60
same,"Plant response rating, Corn",corn (Zea mays); [20],40
same,"Plant response rating, Corn",corn (Zea mays); [21],70
same,"Plant response rating, Foxtail, Giant",[11]; [20],80
same,"Plant response rating, Foxtail, Giant",[11]; [21],90
same,"Plant response rating, Pigweed",[12]; [20],0
same,"Plant response rating, Pigweed",[12]; [21],0
same,"Plant response rating, Ragweed",[13]; [20],0
same,"Plant response rating, Ragweed",[13]; [21],0
same,"Plant response rating, Ryegrass, Italian",[14]; [20],0
same,"Plant response rating, Ryegrass, Italian",[14]; [21],30
same,"Plant response rating, Wheat",[15]; [20],40
same,"Plant response rating, Wheat",[15]; [21],60
same,"Plant response rating, Barnyardgrass",[16],55
same,"Plant response rating, Ducksalad",[17],75
same,"Plant response rating, Rice",rice (Oryra sativa),20
same,"Plant response rating, Sedge, Umbrella",[18],0
N#Cc1cccc(C2CNC(=O)C2C(=O)Nc2cccc(F)c2F)c1 (centres unmarked) [Compound 621],"Plant response rating, Kochia",Kochia (Kochia scoparia) [1]; [19],0
same,"Plant response rating, Kochia",Kochia (Kochia scoparia) [1]; [22],40
same,"Plant response rating, Barnyardgrass",[2]; [19],90
same,"Plant response rating, Barnyardgrass",[2]; [22],90
same,"Plant response rating, Foxtail, Giant",[3]; [19],90
same,"Plant response rating, Foxtail, Giant",[3]; [22],90
same,"Plant response rating, Pigweed",[4]; [19],0
same,"Plant response rating, Pigweed",[4]; [22],20
same,"Plant response rating, Ragweed",[5]; [19],0
same,"Plant response rating, Ragweed",[5]; [22],90
same,"Plant response rating, Ryegrass, Italian",[6]; [19],0
same,"Plant response rating, Ryegrass, Italian",[6]; [22],40
same,"Plant response rating, Galium",[7]; [20],30
same,"Plant response rating, Galium",[7]; [21],40
same,"Plant response rating, Kochia",Kochia (Kochia scoparia) [8]; [20],0
same,"Plant response rating, Kochia",Kochia (Kochia scoparia) [8]; [21],20
same,"Plant response rating, Barnyardgrass",[9]; [20],90
same,"Plant response rating, Barnyardgrass",[9]; [21],90
same,"Plant response rating, Blackgrass",[10]; [20],0
same,"Plant response rating, Blackgrass",[10]; [21],20
same,"Plant response rating, Corn",corn (Zea mays); [20],0
same,"Plant response rating, Corn",corn (Zea mays); [21],20
same,"Plant response rating, Foxtail, Giant",[11]; [20],70
same,"Plant response rating, Foxtail, Giant",[11]; [21],90
same,"Plant response rating, Pigweed",[12]; [20],0
same,"Plant response rating, Pigweed",[12]; [21],0
same,"Plant response rating, Ragweed",[13]; [20],0
same,"Plant response rating, Ragweed",[13]; [21],0
same,"Plant response rating, Ryegrass, Italian",[14]; [20],0
same,"Plant response rating, Ryegrass, Italian",[14]; [21],20
same,"Plant response rating, Wheat",[15]; [20],0
same,"Plant response rating, Wheat",[15]; [21],50
same,"Plant response rating, Barnyardgrass",[16],50
same,"Plant response rating, Ducksalad",[17],100
same,"Plant response rating, Rice",rice (Oryra sativa),20
same,"Plant response rating, Sedge, Umbrella",[18],0
CS(=O)(=O)c1ccccc1NC(=O)C1C(=O)NCC1c1ccc(C2CC2)cc1 (racemic) [Compound 502],"Plant response rating, Kochia",Kochia (Kochia scoparia) [1]; [19],0
same,"Kochia plant response rating (0 to 100 scale, 0 is no effect, 100 is complete control)","Kochia (Kochia scoparia) [1]; Preemergence, 500 g ai/ha",70
same,"Plant response rating, Barnyardgrass",[2]; [19],0
same,"Barnyardgrass plant response rating (0 to 100 scale, 0 is no effect, 100 is complete control)","[2]; Preemergence, 500 g ai/ha",60
same,"Plant response rating, Foxtail, Giant",[3]; [19],80
same,"Foxtail, Giant plant response rating (0 to 100 scale, 0 is no effect, 100 is complete control)","[3]; Preemergence, 500 g ai/ha",90
same,"Plant response rating, Pigweed",[4]; [19],0
same,"Pigweed plant response rating (0 to 100 scale, 0 is no effect, 100 is complete control)","[4]; Preemergence, 500 g ai/ha, visual injury approx. 10 d",30
same,"Plant response rating, Ragweed",[5]; [19],0
same,"Ragweed plant response rating (0 to 100 scale, 0 is no effect, 100 is complete control)","[5]; Preemergence, 500 g ai/ha",50
same,"Plant response rating, Ryegrass, Italian",[6]; [19],0
same,"Ryegrass, Italian plant response rating (0 to 100 scale, 0 is no effect, 100 is complete control)","[6]; Preemergence, 500 g ai/ha",30
same,Galium plant response rating,[7]; [23],20
same,"Plant response rating, Galium",[7]; [21],50
same,Kochia plant response rating,Kochia (Kochia scoparia) [8]; [23],0
same,"Plant response rating, Kochia",Kochia (Kochia scoparia) [8]; [21],20
same,Barnyardgrass plant response rating,[9]; [23],0
same,"Plant response rating, Barnyardgrass",[9]; [21],60
same,Blackgrass plant response rating,[10]; [23],0
same,"Plant response rating, Blackgrass",[10]; [21],20
same,Corn plant response rating,corn (Zea mays); [23],0
same,"Plant response rating, Corn",corn (Zea mays); [21],30
same,"Foxtail, Giant plant response rating",[11]; [23],20
same,"Plant response rating, Foxtail, Giant",[11]; [21],50
same,Pigweed plant response rating,[12]; [23],0
same,"Plant response rating, Pigweed",[12]; [21],0
same,Ragweed plant response rating,[13]; [23],0
same,"Plant response rating, Ragweed",[13]; [21],0
same,"Ryegrass, Italian plant response rating",[14]; [23],0
same,"Plant response rating, Ryegrass, Italian",[14]; [21],30
same,Wheat plant response rating,[15]; [23],0
same,"Plant response rating, Wheat",[15]; [21],0
same,"Plant response rating, Barnyardgrass",[16],0
same,"Plant response rating, Ducksalad",[17],70
same,"Plant response rating, Rice",rice (Oryra sativa),0
same,"Plant response rating, Sedge, Umbrella",[18],0
